One experiment deals with T1, FIH (Homo sapiens, UniProt Q9NWT6).
T1 construct: FIH and GST-tagged HIF-1α 786-826 were prepared as described previously; made in house
The experiment is described as follows: FIH activity assay: 2-OG consumption detected by OPD derivatisation and fluorescence. The class given is biochemical. Conditions: for effect on 2-OG consumption by FIH: inhibitor 1 mM, in the presence of prime substrate and 2-OG, FIG. 7. The procedure:
The assay of FIH activity was carried out by mixing 1 mM DTT, 0.6 mg/ml catalase, 2-OG, substrate and 50 mM Tris/HCl pH 7.5 to a final volume of 88 μl warming to 37° C. for 5 minutes in a water bath. Simultaneously, the enzyme and iron (prepared as 500 mM stock in 20 mM HCl, and diluted with water) were mixed at room temperature for 3 minutes. Reaction was initiated by addition of 12 μl of enzyme/iron mix to the substrate/cofactor mix. The reaction was stopped by addition of 200 μl 0.5M HCl; derivatisation was then achieved by the addition of 100 μl 10 mg/ml OPD in 0.5M HCl, and heating for 10 minutes at 95° C. in a heating block.

In the next experiment the target is T2, PHD2 (Homo sapiens, UniProt Q9GZT9).
T2 construct: a form of the enzyme that has had the first 180 amino acids (including those containing a MYND finger motif) removed; made in house; host or cells: Escherichia coli BL21(DE3)
In words: PHD2 activity assay: 2-OG consumption detected by OPD derivatisation and fluorescence. The class given is biochemical. Conditions: inhibitor 1 mM; Tris and HEPES buffers; FIG. 9. From the text:
The PHD2 used was a form of the enzyme that has had the first 180 amino acids (including those containing a MYND finger motif) removed. Thus the enzyme, after removal of the affinity tag, has a N-terminus of […]; we have found this form of PHD2 to be preferred in the in vitro assays. The enzyme was expressed from the pET28a(+) vector (Novagen), with the gene cloned between NheI and BamHI restriction sites. Growth and induction were using standard techniques, in that the pET28a(+) vector was transformed into BL21(DE3) Escherichia coli cells, and grown in 2TY medium at 37° C. until the absorbance of the solution of 600 nm was 0.8. IPTG was added to a final concentration of 0.5 mM and growth was continued for three hours. Affinity purification using Novagen His-Bind resin was as per the manufacturers instructions.
The assay was carried out as for the FIH, but the buffer used was 50 mM HEPES pH7.0.

Results on 3 compounds are retold here after patent US20050214894A1, “High throughput assay” (priority 2004, published 2005).

pIC50: −log10 of the molar value.

A word on the pIC50: it is the IC50 on a negative log10 scale, so that one unit is a factor of ten. Lower therefore signals a large IC50.

T1 sequence (Q9NWT6 whole entry): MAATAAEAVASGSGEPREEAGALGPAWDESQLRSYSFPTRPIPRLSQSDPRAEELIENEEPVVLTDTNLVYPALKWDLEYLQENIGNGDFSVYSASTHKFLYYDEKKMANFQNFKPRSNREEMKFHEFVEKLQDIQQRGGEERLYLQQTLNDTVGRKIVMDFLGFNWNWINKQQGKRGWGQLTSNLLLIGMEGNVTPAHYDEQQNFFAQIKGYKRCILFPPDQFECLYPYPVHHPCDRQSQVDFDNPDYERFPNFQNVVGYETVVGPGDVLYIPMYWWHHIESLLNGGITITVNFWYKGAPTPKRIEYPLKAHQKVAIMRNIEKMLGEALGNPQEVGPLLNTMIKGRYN
T2 sequence (Q9GZT9 with tags, fused parts or gaps): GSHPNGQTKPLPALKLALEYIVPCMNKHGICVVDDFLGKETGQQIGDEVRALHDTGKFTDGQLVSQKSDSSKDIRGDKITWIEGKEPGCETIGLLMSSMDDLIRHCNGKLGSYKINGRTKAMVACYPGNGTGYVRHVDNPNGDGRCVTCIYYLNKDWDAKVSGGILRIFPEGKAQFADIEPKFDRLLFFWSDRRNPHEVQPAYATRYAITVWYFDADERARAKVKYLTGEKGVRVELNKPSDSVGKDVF

Regarding `O=C(O)c1c[nH]c2c(ccc3cccnc32)c1=O` [FG0041], the “effect on 2-OG consumption by FIH” value at FIH is “eliminated the 2-OG consumption by FIH”.

`O=C(O)CNC(=O)C(=O)O` [N-oxalylglycine]: on FIH, the pIC50 is 4.40 and the “effect on 2-OG consumption by FIH” value is on record as “eliminated the 2-OG consumption by FIH”.

Consider `O=C(O)C(=O)N[C@H](Cc1ccccc1)C(=O)O` [NOFD, N-oxalyl-D-phenylalanine], for which the “inhibition of PHD2” value against PHD2 is listed as “little, if any, inhibition of PHD2”.
